Reference: patent US10588316B2 (priority 2015, dated 2020)

What was measured:
Fusarium graminearum = experiment: microbe, parasite or virus in culture; assay type: cell-based
[1] = tested on: Fusarium graminearum and Fusarium asiaticum; experiment: organism not typed; assay type: cell-based; details: tebuconazole 0.078 μg/mL; sensitive and fungicide-resistant strains

Tebuconazole
Median Effective Concentration (EC50) for Growth Inhibition (Fusarium graminearum; F.g carbendazim-resistant strains): 0.101 µg/mL
Median Effective Concentration (EC50) for Growth Inhibition (Fusarium graminearum; F.g phenamacril-resistant strains): 0.085 µg/mL
inhibitory effect on hyphal growth [1]: ~50%
